Experimental data as given in patent US5384128A, “Method of and compounds for treatment for cystic fibrosis” (University of Alabama Research Foundation, priority 1993, dated 1995).

Key:
PLJ-CFTR-CFPAC-10 = assay: 125I- efflux assay, CFPAC-1 cells transduced with wild-type CFTR cDNA; type: cell-based, human; settings: vector containing wild-type CFTR cDNA (PLJ-CFTR-CFPAC-10)
Text: (§1) The cells employed were (1) T84 cells (ATCC Accession No. CCL 248) (2) CFPAC-1 cells (ATCC Accession No. CRL 1918) (a newly established continuous line of pancreatic duct adenocarcinoma cells from a CF patient which is homozygous for the deletion of phenylalanine in the 508 position of CFTR, the mutation found in 70% of CF patients), (3) clones of CFPAC-1 cells which have been transduced with a retroviral vector (PLJ) containing (PLJ-CFTR-CFPAC) or lacking (PLJ-CFPAC) cDNA for functional CFTR, and (4) 2CFSMEo-, a continuous cell line derived from the tracheal submucosal gland of a CF patient whose exact genotype is unknown but which expresses the phenotype of defective Cl^- channel permeability characteristic of CF.
(§2) In general, cells were washed with 1 ml of efflux medium (140 mM NaCl, 1 mM Ca gluconate, 1 mM Mg gluconate, 5 mM KH2 PO4, 10 mM Tris-Hepes pH 7.4) four times and incubated with ^125 I- (3μl Na ^125 I=12 μC) in 1 ml of the same medium containing 5 mM D-glucose for 1 hour at 37° C. to load the cells with ^125 I. The cells were then washed quickly five times with 1 ml of the efflux medium at 22° C. to remove any ^125 I- that had not been taken up by the cells. One ml of the efflux medium at 22° C. was then added to initiate efflux and left in contact with the cells for 1 minute, before being removed and replaced with another 1 ml of medium. […] The samples of the replacement media were counted in a gamma counter to determine the amount of ^125 I- effluxing from the cells into the medium in each time interval. After 15 minutes when measurement of efflux was completed the cells were extracted for 30 minutes with 1 ml 0.2N NaOH, 0.15% SDS and the extract counted to determine the residual ^125 I- remaining in the cells.
(§3) The data is expressed as ^125 I- remaining in the cells (set at 100% at the initiation of efflux) and plotted against the time of efflux in minutes and/or as the ln % of ^125 I- remaining in the cells, plotted against the time of efflux in minutes. […]

CFPAC-1 cells = assay: 125I- efflux assay, CFPAC-1 cells; type: cell-based, human
Text: as §1
(§4) In general, cells were washed with 1 ml of efflux medium (140 mM NaCl, 1 mM Ca gluconate, 1 mM Mg gluconate, 5 mM KH2 PO4, 10 mM Tris-Hepes pH 7.4) four times and incubated with ^125 I- (3μl Na ^125 I=12 μC) in 1 ml of the same medium containing 5 mM D-glucose for 1 hour at 37° C. to load the cells with ^125 I. The cells were then washed quickly five times with 1 ml of the efflux medium at 22° C. to remove any ^125 I- that had not been taken up by the cells. One ml of the efflux medium at 22° C. was then added to initiate efflux and left in contact with the cells for 1 minute, before being removed and replaced with another 1 ml of medium. This replacement procedure was carried out 2-5 times before addition of the appropriate surfactant and/or agonist in 1 ml of the same medium to one culture dish (experimental) while to another dish 1 ml of medium without surfactant and/or agonist was added (control). Medium with or without surfactant and/or agonist was replaced at 0.5 minute intervals until the 10 minute time point when the replacement time was prolonged to 1 minute intervals. The samples of the replacement media were counted in a gamma counter to determine the amount of ^125 I- effluxing from the cells into the medium in each time interval. After 15 minutes when measurement of efflux was completed the cells were extracted for 30 minutes with 1 ml 0.2N NaOH, 0.15% SDS and the extract counted to determine the residual ^125 I- remaining in the cells.
(§5) The data is expressed as ^125 I- remaining in the cells (set at 100% at the initiation of efflux) and plotted against the time of efflux in minutes and/or as the ln % of ^125 I- remaining in the cells, plotted against the time of efflux in minutes. Expressing the data in the latter form facilitates calculation of the apparent rate constant for ^125 I- efflux using the equation r=[ln (R1)-ln (R2)]/(t1-t2) where R1 and R2 are the percent of counts remaining in the cell layer at times t1 and t2 respectively.

[1] = Effective dosage (general statement); type: cell-based; settings: maltoside with alkyl chain of 12, 13 or 14 carbon atoms
T84 cells [2] = assay: 125I- efflux assay (Cl- channel activity), T84 cells; type: cell-based; settings: for potency in stimulating 125I- efflux relative to DM: equimolar concentrations
Text: (§6) Forskolin or cAMP-stimulated Cl^- channel activity is a standard measurement of the activity of Cl^- channels represented by CFTR, while ionomycin or Ca^++ ionophore-stimulated Cl^- channel activity is a measure of the activity of Ca^++ -regulated Cl^- channels which arc different from those represented by CFTR. […] In contrast Ca^++ -regulated Cl^- channels operate normally in CF cells and are opened by ionomycin just as they are in T84 cells.
as §1, §4, §5

2CFSMEo- = assay: 125I- efflux assay, airway epithelial cell line of a CF patient; type: cell-based, human; settings: 2CFSMEo- cells
Text: as §1, §2, §3

PLJ-CFPAC-10 = assay: 125I- efflux assay, CFPAC-1 cells transduced with vector lacking CFTR cDNA; type: cell-based, human
Text: as §1, §2, §3

T84 cells [3] = settings: human
CF cells = assay: 125I- efflux / Cl- channel opening in CF cells; type: cell-based
Protocol: as §6
as §2, with “cells.” for “cells. One ml of the efflux medium at 22° C. was then added to initiate efflux and left in contact with the cells for 1 minute, before being removed and replaced with another 1 ml of medium.”

CFTR in T84 cells = settings: cited from earlier work
CFPAC-1 = settings: CFPAC-1, homozygous ΔF508; cited from earlier work
T84 cells [4] = settings: comparison statement; cited from earlier work

CCCCCCCCCCCCCCO[C@@H]1O[C@H](CO)[C@@H](O[C@@H]2O[C@@H](CO)[C@H](O)[C@@H](O)[C@@H]2O)[C@H](O)[C@H]1O (stereo in doubt) [tetra DM, tetradecylmaltoside]
Cl- channel activity as measured by increased 125I- efflux (PLJ-CFTR-CFPAC-10): stimulate | increase in 125I- efflux, dose dependence (CFPAC-1 cells): dose-dependent increase | effective dosage [1]: 10 to 400 µM | potency as Cl- channel activator among alkylmaltosides tested (T84 cells [2]): most potent | cause of 125I- efflux stimulation: cell lysis (T84 cells [2]; T84 cells): not due to lysis of the cells | potency change on lengthening alkyl chain, DM as reference standard (T84 cells [2]; T84 cells): markedly increases the potency | stimulation of 125I- efflux, dose dependence (T84 cells [2]; T84 cells, 10-100 μM): dose-dependent stimulation | potency in stimulating 125I- efflux relative to DM (T84 cells [2]; T84 cells): more potent than DM | stimulation of 125I- efflux, dose dependence (2CFSMEo-): dose-dependent stimulation | Cl- channel activity as measured by increased 125I- efflux (PLJ-CFPAC-10): stimulate

CCCCCCCCCCCCCO[C@@H]1O[C@H](CO)[C@@H](OC2OC(CO)C(O)C(O)C2O)[C@H](O)[C@H]1O (stereo in doubt) [tri DM, tridecylmaltoside]
Cl- channel activity as measured by increased 125I- efflux (PLJ-CFTR-CFPAC-10): stimulate | increase in 125I- efflux, dose dependence (CFPAC-1 cells): dose-dependent increase | effective dosage [1]: 10 to 400 µM | potency as Cl- channel activator among alkylmaltosides tested (T84 cells [2]): most potent | cause of 125I- efflux stimulation: cell lysis (T84 cells [2]; T84 cells): not due to lysis of the cells | potency change on lengthening alkyl chain, DM as reference standard (T84 cells [2]; T84 cells): markedly increases the potency | stimulation of 125I- efflux, dose dependence (T84 cells [2]; T84 cells, 10-100 μM): dose-dependent stimulation | potency in stimulating 125I- efflux relative to DM (T84 cells [2]; T84 cells): more potent than DM | stimulation of 125I- efflux, dose dependence (2CFSMEo-): dose-dependent stimulation | Cl- channel activity as measured by increased 125I- efflux (PLJ-CFPAC-10): stimulate

CCCCCCCCCCCCO[C@@H]1O[C@H](CO)[C@@H](O)[C@H](O)[C@H]1O [DG, dodecylglucoside]
activity as Cl- channel activator on altering saccharide moiety, compared to DM at 100 μM (T84 cells [2]; T84 cells): markedly reduces the activity | effect in stimulating 125I- efflux (T84 cells [2]; T84 cells, 100 μM): minimal effect

CCCCCCCCCCCCO[C@@H]1O[C@H](CO)[C@@H](O[C@H]2O[C@H](CO)[C@@H](O)[C@H](O)[C@H]2O)[C@H](O)[C@H]1O [DM, dodecylmaltoside]
Cl- channel activity as measured by increased 125I- efflux (PLJ-CFTR-CFPAC-10): stimulate | effective dosage [1]: 10 to 400 µM | cause of 125I- efflux stimulation: cell lysis (T84 cells [2]; T84 cells): not due to lysis of the cells | reversibility of response upon removal of the agent (T84 cells [2]; T84 cells): reversible | rate of 125I- efflux during exposure, compared to control rate (T84 cells [2]; T84 cells, 100 μM or 200 μM DM): increased rate | rate of 125I- efflux with DM remaining during efflux phase after preincubation, compared to same concentration without preincubation (T84 cells [2]; T84 cells, 100 μM or 200 μM DM): comparable | rate of 125I- efflux after removal of agent (T84 cells [2]; T84 cells, 100 μM or 200 μM DM, after 2 min exposure): reverts to the control rate | stimulation of 125I- efflux, dose dependence (T84 cells [2]; T84 cells, 10-400 μM): dose-dependent stimulation | rate of 125I- efflux on further exposure to forskolin in presence of DM (T84 cells [2]; T84 cells, 80-100 μM DM plus 20 μM forskolin): additional increase | MNTC (T84 cells [3]): < 150 µM | Cl- channel activity as measured by increased 125I- efflux (PLJ-CFPAC-10): stimulate

C[C@@H]1CC[C@@]2(OC1)O[C@H]1[C@@H](O)[C@H]3[C@@H]4CC[C@H]5C[C@@H](O[C@@H]6O[C@H](CO)[C@H](O[C@@H]7O[C@H](CO)[C@@H](O)[C@H](O[C@@H]8OC[C@@H](O)[C@H](O)[C@H]8O)[C@H]7O[C@@H]7O[C@H](CO)[C@H](O)[C@H](O[C@@H]8O[C@H](CO)[C@@H](O)[C@H](O)[C@H]8O)[C@H]7O)[C@H](O)[C@H]6O)[C@H](O)C[C@]5(C)[C@H]4CC[C@]3(C)[C@H]1[C@@H]2C [Digitonin, digitonin, reference compound]
stimulation of 125I- efflux (T84 cells [2]; T84 cells, 50 μM): pronounced effect

C[S+](C)[O-] [Dimethylsulfoxide (DMSO), Dimethylsulfoxide, reference compound]
effect in stimulating 125I- efflux (T84 cells [2]; T84 cells, 17.6 mM): no effect

O=C(O)c1cc([N+](=O)[O-])ccc1NCCCc1ccccc1 [NPPB, reference compound]
125I- efflux inhibition (T84 cells [2]; T84 cells, blocker of some Cl- channels): inhibits | blocking of Cl- channels (2CFSMEo-): blocked

C=C[C@@]1(C)CC(=O)[C@]2(O)[C@@]3(C)[C@@H](O)CCC(C)(C)[C@@H]3[C@H](O)[C@H](OC(C)=O)[C@@]2(C)O1 [forskolin]
125I- efflux in response to agonist (CF cells): not stimulated | response in 125I- efflux assay (CFPAC-1 cells): unresponsive | activation of CFTR (CFTR in T84 cells): activate CFTR in T84 cells | stimulation of 125I- efflux (T84 cells [2]; T84 cells, 20 μM forskolin): stimulation | activation of the Cl- channel (CFPAC-1): inability of the channel to be activated

C[C@H](CCC(=O)O)C[C@H](C)C[C@H](C)C(=O)/C=C(\O)[C@H](C)C[C@H](C)C/C=C/[C@@H](C)[C@@H](O)[C@@H](C)[C@@H](O)C[C@@H]1CC[C@@](C)([C@H]2CC[C@@](C)([C@@H](C)O)O2)O1 [ionomycin, reference compound]
Opening of Ca++-regulated Cl- channels (CF cells): opened | response in 125I- efflux assay (CFPAC-1 cells): responds briskly | stimulation of 125I- efflux (T84 cells [2]; T84 cells, 1 μM ionomycin): stimulation

CCCCCCCCO[C@@H]1O[C@H](CO)[C@@H](O)[C@H](O)[C@H]1O [octylglucoside]
concentration at which an appreciable effect in stimulating 125I- efflux is shown (T84 cells [2]; T84 cells): ≥ 500 µM | potency relative to DM, tri DM and tetra DM (T84 cells [2]; T84 cells): less potent than DM, tri DM and tetra DM | stimulation of 125I- efflux (T84 cells [2]; T84 cells): stimulate

CCCCCCCCCCCCOS(=O)(=O)[O-].[Na+] [sodium dodecyl sulfate (SDS), sodium dodecyl sulfate]
release upon cell lysis (T84 cells [4]): precipitous release

dodecylsucrose [DS]
activity as Cl- channel activator on altering saccharide moiety, compared to DM at 100 μM (T84 cells [2]; T84 cells): markedly reduces the activity | potency relative to DM, tri DM and tetra DM (T84 cells [2]; T84 cells): less potent than DM, tri DM and tetra DM | stimulation of 125I- efflux (T84 cells [2]; T84 cells): stimulate | effect on 125I- efflux relative to DM at 100 μM (T84 cells [2]; T84 cells, 100 μM): significantly smaller effect than DM
